Measurements: patent US20080206311A1, “Sucrase Activity Inhibitor, Glucoamylase Activity Inhibitor and Food and Feed Containing the Same” (MITSUI SUGAR CO., LTD., priority 2005, published 2008)

What was measured:
[1] = system: glucoamylase; experiment: Glucoamylase activity inhibition with rat small-intestinal enzyme liquid, substrate soluble starch; assay type: biochemical; conditions: 5% soluble starch + 5% test sample
Experimental: Two grams of rat small-intestinal acetone powder (ex Sigma Corporation) were dissolved in 20 ml of 0.1 M phosphate buffer (pH 6.8), left standing one day at 5° C., and subsequently subjected to centrifugal separation (8000 rpm×15 min.). The supernatant was filtered through a 0.8 μm membrane filter to obtain a small-intestinal enzyme liquid. This liquid contained a mixture of enzymes present in small intestine, such as sucrose, glucoamylase, maltase, and isomaltase.
Each 0.25 ml of the small-intestinal enzyme liquid was added to each 5 ml of Solutions 1 through 5 and placed in a water bath at 37° C. to allow them to react for 60 min. while shaken at 60 strokes/min. After the reaction, they were heated in a boiling water bath for 3 min. for inactivation of the enzymes.
The glucose concentration in each solution after the reaction was measured using the F-kit Glucose (ex Roche). A liberated glucose concentration (g/l) was calculated by subtracting the blank value (0.1 M phosphate buffer alone) and the concentration of glucose originally contained in the test sample from each glucose concentration measured.
Next, each of the liberated glucose concentration was input in the following equation to obtain decomposition inhibition ratio for maltase and sucrose. In the present tests, the substrates and the inhibitors were decomposed by enzymes present in the small-intestinal enzyme liquid. However, the enzymes decomposing the substrates are different from the enzymes decomposing the inhibitors. The decomposition inhibition ratio was determined as a measure for the inhibitory effect. When the inhibitor was added, the glucose concentration was lower than that seen when the substrate alone was reacted. A higher decomposition inhibition ratio means a stronger inhibitory effect.
Decomposition inhibition ratio,%={(A+B)−(AB)}+(A+B)×100 [Equation 1]
wherein (A+B) indicates a sum of a liberated glucose concentration in the control solution containing the test sample alone after the reaction (A) and a liberated glucose concentration in the control solution containing the substrate alone after the reaction (B); and (AB) indicates a liberated glucose concentration in the test solution containing the test sample (A) and the substrate (B), after the reaction.
The procedures in Example 1 were repeated with the exception that palatinose and palatinit were used as a test sample and soluble starch was used as a substrate. The test samples and the substrate were dissolved in 0.1 M phosphate buffer (pH 6.8) to attain the concentration shown in Table 6 to thereby prepare two test solutions. Besides, each of the test samples or the substrate was dissolved in 0.1 M phosphate buffer (pH 6.8) to attain the concentration shown in Table 6 to thereby prepare control solutions. Each 5 ml of the aforementioned test solutions and the control solutions was subjected to the enzymatic reaction according to the same procedures as in Example 1 and the liberated glucose concentration and the decomposition inhibition ratio were measured.
The procedures in Example 1 were repeated with the exception that trehalulose was used as a test sample and soluble starch was used as a substrate. The test sample and the substrate were dissolved in 0.1 M phosphate buffer (pH 6.8) to attain the concentration shown in Table 9 to thereby prepare a test solution. Besides, the test sample or the substrate was dissolved in 0.1 M phosphate buffer (pH 6.8) to attain the concentration shown in Table 9 to thereby prepare control solutions. Each 5 ml of the aforementioned test solution and the control solutions was subjected to the enzymatic reaction according to the same procedures as in Example 1 and the liberated glucose concentration and the decomposition inhibition ratio were measured.
The procedures in Example 1 were repeated with the exception that trehalose was used as a test sample and soluble starch was used as a substrate. […]

[2] = biological target: T1, sucrase (Rattus norvegicus, UniProt P23739); experiment: Ratio of inhibitor to the substrate sucrose (Examples 8, 9); assay type: biochemical; conditions: 10 min
T1 construct: This liquid contained a mixture of enzymes present in small intestine, such as sucrose, glucoamylase, maltase, and isomaltase; tissue Sigma Corporation; host or cells: rat small intestine (acetone powder), buffer extract, unpurified
Experimental: Twenty samples with the concentrations shown in Table 11, Samples A-1 through A-20, were dissolved in 0.1 M phosphate buffer (pH 6.8) to a final volume of 2.5 ml.
This was made in the same way as in the preparation of a small intestinal enzyme solution in Example 1.
Each 0.15 ml of a small intestinal enzyme solution was added to each 2.5 ml of the aforementioned 20 samples, each mixture, and placed in a water bath at 37° C. to allow reaction for 10 minutes while shaken at 60 strokes/min. At the end of the reaction, the mixture was heated in a boiling water bath for 3 min. for inactivation of the enzyme. As a blank, 0.15 ml of the intestinal enzyme solution was added to 0.1 M phosphate buffer (pH 6.8) and the enzyme was inactivated immediately.
After the reaction, the glucose concentration in each solution was measured using the F-kit Glucose (ex Roche) as in Example 1.
The procedures in Example 8 were repeated with the exception that twenty samples with the concentrations shown in Table 12, Samples B-1 through B-20, were dissolved in 0.1 M phosphate buffer (pH 6.8) to a final volume of 2.5 ml.

[3] = biological target: (Homo sapiens, UniProt P14410); conditions: 4.3-56 mM sucrose as substrate, 14 mM palatinose as inhibitor; cited from earlier work
Sequence of (Homo sapiens, UniProt P14410) (P14410 whole entry): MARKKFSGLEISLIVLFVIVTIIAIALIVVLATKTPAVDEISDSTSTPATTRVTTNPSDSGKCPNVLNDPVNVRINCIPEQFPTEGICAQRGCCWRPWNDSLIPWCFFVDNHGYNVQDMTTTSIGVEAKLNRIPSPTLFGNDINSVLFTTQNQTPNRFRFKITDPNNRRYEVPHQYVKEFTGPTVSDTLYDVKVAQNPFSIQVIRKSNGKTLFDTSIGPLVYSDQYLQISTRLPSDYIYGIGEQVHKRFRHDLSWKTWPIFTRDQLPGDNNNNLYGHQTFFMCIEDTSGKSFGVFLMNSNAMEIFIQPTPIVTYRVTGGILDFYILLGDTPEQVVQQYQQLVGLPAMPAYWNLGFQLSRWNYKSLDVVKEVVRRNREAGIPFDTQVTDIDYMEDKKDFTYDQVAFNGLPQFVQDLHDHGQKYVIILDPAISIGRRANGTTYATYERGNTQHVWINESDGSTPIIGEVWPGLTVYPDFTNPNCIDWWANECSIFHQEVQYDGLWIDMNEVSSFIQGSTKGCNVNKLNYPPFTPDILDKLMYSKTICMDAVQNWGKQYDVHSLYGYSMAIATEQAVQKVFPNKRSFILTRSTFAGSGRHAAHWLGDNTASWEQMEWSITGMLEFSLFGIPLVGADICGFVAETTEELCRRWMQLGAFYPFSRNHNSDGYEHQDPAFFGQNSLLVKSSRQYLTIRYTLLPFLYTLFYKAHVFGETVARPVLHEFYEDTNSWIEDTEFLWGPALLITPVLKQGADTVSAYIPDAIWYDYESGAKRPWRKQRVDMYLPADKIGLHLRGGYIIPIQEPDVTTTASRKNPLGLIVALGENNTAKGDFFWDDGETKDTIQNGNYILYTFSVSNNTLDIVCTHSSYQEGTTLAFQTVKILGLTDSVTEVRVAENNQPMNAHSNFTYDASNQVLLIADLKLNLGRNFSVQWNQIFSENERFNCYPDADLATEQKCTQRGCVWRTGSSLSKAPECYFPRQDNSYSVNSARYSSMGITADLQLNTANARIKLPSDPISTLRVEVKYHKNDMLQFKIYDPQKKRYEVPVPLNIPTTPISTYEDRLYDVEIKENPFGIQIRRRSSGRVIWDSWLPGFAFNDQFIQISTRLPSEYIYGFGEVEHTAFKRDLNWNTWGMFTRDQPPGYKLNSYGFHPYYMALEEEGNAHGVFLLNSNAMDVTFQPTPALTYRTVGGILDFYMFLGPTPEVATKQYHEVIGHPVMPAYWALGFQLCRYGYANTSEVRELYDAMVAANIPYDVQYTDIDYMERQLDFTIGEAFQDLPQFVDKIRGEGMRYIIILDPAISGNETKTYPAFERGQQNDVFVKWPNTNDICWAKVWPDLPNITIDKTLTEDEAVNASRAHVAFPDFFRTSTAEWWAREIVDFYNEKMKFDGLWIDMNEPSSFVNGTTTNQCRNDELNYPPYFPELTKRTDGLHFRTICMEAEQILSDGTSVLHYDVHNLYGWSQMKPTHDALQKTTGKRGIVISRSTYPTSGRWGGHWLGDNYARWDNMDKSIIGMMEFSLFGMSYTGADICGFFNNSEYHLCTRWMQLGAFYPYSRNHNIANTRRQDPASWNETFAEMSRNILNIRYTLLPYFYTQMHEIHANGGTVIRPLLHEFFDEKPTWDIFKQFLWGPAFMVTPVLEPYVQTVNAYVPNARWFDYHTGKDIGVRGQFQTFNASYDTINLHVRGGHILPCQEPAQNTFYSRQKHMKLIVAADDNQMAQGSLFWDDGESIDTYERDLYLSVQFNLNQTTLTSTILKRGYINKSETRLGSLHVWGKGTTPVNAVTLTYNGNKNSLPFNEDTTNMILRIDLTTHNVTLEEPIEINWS

T1 sequence (P23739 whole entry): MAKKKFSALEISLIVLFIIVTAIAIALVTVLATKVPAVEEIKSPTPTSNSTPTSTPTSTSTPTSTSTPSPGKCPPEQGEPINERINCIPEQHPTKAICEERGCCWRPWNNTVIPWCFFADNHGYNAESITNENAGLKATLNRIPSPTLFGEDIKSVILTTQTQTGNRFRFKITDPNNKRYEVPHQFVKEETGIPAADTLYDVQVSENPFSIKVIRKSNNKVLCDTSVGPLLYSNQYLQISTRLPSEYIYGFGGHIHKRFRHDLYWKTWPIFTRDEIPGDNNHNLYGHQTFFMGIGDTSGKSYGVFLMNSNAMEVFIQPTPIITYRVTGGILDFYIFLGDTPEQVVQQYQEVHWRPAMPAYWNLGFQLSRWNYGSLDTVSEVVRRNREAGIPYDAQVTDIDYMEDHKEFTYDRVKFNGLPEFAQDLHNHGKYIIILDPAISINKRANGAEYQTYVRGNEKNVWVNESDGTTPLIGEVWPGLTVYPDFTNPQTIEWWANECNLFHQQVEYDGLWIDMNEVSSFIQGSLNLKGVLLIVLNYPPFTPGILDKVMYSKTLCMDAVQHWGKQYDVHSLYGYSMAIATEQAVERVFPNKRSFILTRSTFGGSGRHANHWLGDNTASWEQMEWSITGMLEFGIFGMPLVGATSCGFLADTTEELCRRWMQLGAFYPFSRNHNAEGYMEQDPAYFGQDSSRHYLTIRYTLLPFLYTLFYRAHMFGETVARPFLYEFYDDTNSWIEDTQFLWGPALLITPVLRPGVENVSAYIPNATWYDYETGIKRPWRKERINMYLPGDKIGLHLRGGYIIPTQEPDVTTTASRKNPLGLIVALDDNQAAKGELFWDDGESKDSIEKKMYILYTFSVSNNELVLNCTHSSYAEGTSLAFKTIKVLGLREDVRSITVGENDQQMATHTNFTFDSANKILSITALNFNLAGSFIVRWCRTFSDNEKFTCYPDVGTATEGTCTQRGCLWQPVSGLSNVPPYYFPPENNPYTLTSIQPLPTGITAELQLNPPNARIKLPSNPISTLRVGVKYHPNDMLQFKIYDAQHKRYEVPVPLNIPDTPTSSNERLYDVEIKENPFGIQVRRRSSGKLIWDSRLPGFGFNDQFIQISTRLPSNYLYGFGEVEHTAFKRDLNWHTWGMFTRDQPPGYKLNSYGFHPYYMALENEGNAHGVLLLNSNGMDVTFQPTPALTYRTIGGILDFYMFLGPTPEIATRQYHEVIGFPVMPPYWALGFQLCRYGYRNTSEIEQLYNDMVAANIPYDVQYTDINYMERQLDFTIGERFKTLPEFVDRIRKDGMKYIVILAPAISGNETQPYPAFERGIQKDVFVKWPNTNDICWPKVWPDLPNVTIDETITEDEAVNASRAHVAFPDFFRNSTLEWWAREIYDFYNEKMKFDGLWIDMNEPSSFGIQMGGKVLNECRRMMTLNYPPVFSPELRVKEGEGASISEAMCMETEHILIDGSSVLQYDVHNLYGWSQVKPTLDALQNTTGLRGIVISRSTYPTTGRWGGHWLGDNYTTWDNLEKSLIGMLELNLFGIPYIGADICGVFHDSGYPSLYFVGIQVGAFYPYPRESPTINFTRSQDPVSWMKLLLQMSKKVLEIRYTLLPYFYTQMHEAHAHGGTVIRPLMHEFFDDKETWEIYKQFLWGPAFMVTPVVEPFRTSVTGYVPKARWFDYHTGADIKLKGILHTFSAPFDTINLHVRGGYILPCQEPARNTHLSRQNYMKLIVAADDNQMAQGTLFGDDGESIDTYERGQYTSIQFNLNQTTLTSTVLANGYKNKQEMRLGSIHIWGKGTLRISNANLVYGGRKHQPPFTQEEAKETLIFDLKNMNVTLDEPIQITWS

Q: Which “Glucoamylase activity inhibitory effect (in words)” value [1] does the source give for OC[C@H]1O[C@H](OC[C@H]2OC(O)(CO)[C@@H](O)[C@@H]2O)[C@H](O)[C@@H](O)[C@@H]1O (stereo partly drawn) [palatinose, isomaltulose] here?
A: Its value is “have the glucoamylase activity inhibitory effect”.

Q: What about the “Decomposition inhibition ratio, %, against glucoamylase” value ([1]; Example 4) of the same compound?
A: The value was 26%.

Q: What about the Liberated glucose concentration ([1]; Example 4) of the same compound?
A: Its Liberated glucose concentration is 3.611 g/L.

Q: What about the “Inhibitory effect on the decomposition of sucrose (FIG. 5)” value ([2]; sucrose concentration 0.5%, palatinose 5, 10, 50% relative to sucrose) of the same compound?
A: Its value is “not clear”.

Q: What about the “Ratio of palatinose added relative to the weight of sucrose at which decomposition of sucrose was suppressed (FIG. 4)” value ([2]; sucrose concentrations 3%, 5%, 10% and 15%) of the same compound?
A: Its value is no less than 10%.

Q: And the “Inhibitory effect on the sucrase activity (reported)” value [3]?
A: The value was “no inhibitory effect”.
